Measurements published in the supplement of paper PMC10307832.

Assays:
Assay in all cases: relative viability (nuclei count vs DMSO), 5 days (fraction); higher = more cells survive
Etoposide + Olaparib = compound: COc1cc([C@@H]2c3cc4c(cc3[C@@H](O[C@@H]3O[C@@H]5CO[C@@H](C)O[C@H]5[C@H](O)[C@H]3O)[C@H]3COC(=O)[C@H]23)OCO4)cc(OC)c1O [Etoposide] + O=C(c1cc(Cc2n[nH]c(=O)c3ccccc23)ccc1F)N1CCN(C(=O)C2CC2)CC1 [Olaparib] (partner 8 µM)
Method in brief: (§1)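 Cells from lung cancer lines were seeded into 1536-well plates and, one day later, dosed by pin tool. Treatments were either a single drug or a fixed dose of an anchor drug with five library-drug doses (not always all listed) in √10 steps. After 5 days, nuclei were stained in a one-step fixation (final 0.05% Triton X-100, 1% formaldehyde, 1 ug/ml Hoechst) and counted on 4× images, and relative viability is the treated-to-vehicle nuclei ratio, as the median of duplicate plates.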

Etoposide + Tozasertib = compound: COc1cc([C@@H]2c3cc4c(cc3[C@@H](O[C@@H]3O[C@@H]5CO[C@@H](C)O[C@H]5[C@H](O)[C@H]3O)[C@H]3COC(=O)[C@H]23)OCO4)cc(OC)c1O [Etoposide] + Cc1cc(Nc2cc(N3CCN(C)CC3)nc(Sc3ccc(NC(=O)C4CC4)cc3)n2)n[nH]1 [Tozasertib] (partner 0.1 µM)
Method in brief: as §1

Etoposide + Alpelisib = compound: COc1cc([C@@H]2c3cc4c(cc3[C@@H](O[C@@H]3O[C@@H]5CO[C@@H](C)O[C@H]5[C@H](O)[C@H]3O)[C@H]3COC(=O)[C@H]23)OCO4)cc(OC)c1O [Etoposide] + Cc1nc(NC(=O)N2CCC[C@H]2C(N)=O)sc1-c1ccnc(C(C)(C)C(F)(F)F)c1 [Alpelisib] (partner 2 µM)
Method in brief: as §1

Bleomycin + Lapatinib = compound: CC1=C(N=C(N=C1N)[C@H](CC(=O)N)NC[C@@H](C(=O)N)N)C(=O)N[C@@H]([C@H](C2=CN=CN2)OC3C(C(C(C(O3)CO)O)O)OC4C(C(C(C(O4)CO)O)OC(=O)N)O)C(=O)N[C@H](C)[C@H]([C@H](C)C(=O)N[C@@H]([C@@H](C)O)C(=O)NCCC5=NC(=CS5)C6=NC(=CS6)C(=O)NCCC[S+](C)C)O [Bleomycin] + CS(=O)(=O)CCNCc1ccc(-c2ccc3ncnc(Nc4ccc(OCc5cccc(F)c5)c(Cl)c4)c3c2)o1 [Lapatinib] (partner 2 µM); details: main component drawn
Method in brief: as §1

| Cell Line | relative viability (Etoposide + Olaparib; first compound 0.01 µM) | relative viability (Etoposide + Olaparib; first compound 0.03162 µM) | relative viability (Etoposide + Olaparib; first compound 0.1 µM) | relative viability (Etoposide + Olaparib; first compound 0.3162 µM) | relative viability (Etoposide + Olaparib; first compound 1 µM) | relative viability (Etoposide + Tozasertib; first compound 0.01 µM) | relative viability (Etoposide + Tozasertib; first compound 0.03162 µM) | relative viability (Etoposide + Tozasertib; first compound 0.1 µM) | relative viability (Etoposide + Tozasertib; first compound 0.3162 µM) | relative viability (Etoposide + Tozasertib; first compound 1 µM) | relative viability (Etoposide + Alpelisib; first compound 0.01 µM) | relative viability (Etoposide + Alpelisib; first compound 0.03162 µM) | relative viability (Etoposide + Alpelisib; first compound 0.1 µM) | relative viability (Etoposide + Alpelisib; first compound 0.3162 µM) | relative viability (Etoposide + Alpelisib; first compound 1 µM) | relative viability (Bleomycin + Lapatinib; first compound 0.01 µM) | relative viability (Bleomycin + Lapatinib; first compound 0.03162 µM) | relative viability (Bleomycin + Lapatinib; first compound 0.1 µM) | relative viability (Bleomycin + Lapatinib; first compound 0.3162 µM) | relative viability (Bleomycin + Lapatinib; first compound 1 µM) |
| --- | --- | --- | --- | --- | --- | --- | --- | --- | --- | --- | --- | --- | --- | --- | --- | --- | --- | --- | --- | --- |
| HCC-15 | 0.699 | 0.613 | 0.629 | 0.266 | 0.162 | 0.386 | 0.348 | 0.367 | 0.23 | 0.122 | 0.894 | 0.898 | 0.721 | 0.333 | 0.122 | 0.808 | 0.801 | 0.806 | 0.299 | 0.223 |
| HCC-44 | 1.02 | 1.04 | 1.04 | 0.918 | 0.543 | 0.759 | 0.886 | 1.11 | 0.57 | 0.317 | 0.635 | 0.89 | 0.857 | 0.569 | 0.323 | 0.648 | 0.429 | 0.228 | 0.193 | 0.145 |
| HCC-78 | 0.679 | 0.795 | 0.553 | 0.259 | 0.235 | 0.375 | 0.488 | 0.988 | 0.264 | 0.184 | 0.316 | 0.354 | 0.212 | 0.213 | 0.161 | 0.64 | 0.918 | 0.549 | 0.429 | 0.215 |
| HCC-366 | 0.292 | 0.304 | 0.217 | 0.0515 | 0.0449 | 0.0819 | 0.087 | 0.0918 | 0.0736 | 0.0452 | 0.305 | 0.39 | 0.333 | 0.162 | 0.0382 | 0.52 | 0.337 | 0.212 | 0.0246 | 0.0258 |
| HCC-827 | 0.685 | 0.623 | 0.43 | 0.16 | 0.164 | 0.388 | 0.453 | 0.433 | 0.192 | 0.173 | 0.967 | 0.912 | 0.696 | 0.453 | 0.18 | 0.197 | 0.204 | 0.187 | 0.173 | 0.15 |
| HOP-62 | 0.48 | 0.478 | 0.557 | 0.197 | 0.215 | 0.388 | 0.386 | 0.366 | 0.279 | 0.203 | 0.995 | 1.25 | 0.518 | 0.663 | 0.294 | 0.485 | 0.395 | 0.15 | 0.14 | 0.141 |
| IA-LM | 0.674 | 0.822 | 0.771 | 0.681 | 0.441 |  |  |  |  |  | 0.773 | 0.815 | 0.477 | 0.645 | 0.552 | 0.476 | 0.7 | 0.623 | 0.274 | 0.336 |
| LC-2-ad | 0.349 | 0.692 | 0.771 | 0.412 | 0.274 | 0.39 | 0.441 | 0.327 | 0.339 | 0.285 | 0.888 | 0.911 | 0.846 | 0.532 | 0.172 | 0.674 | 0.264 | 0.286 | 0.127 | 0.105 |
| LCLC-103H | 0.786 | 0.803 | 0.77 | 0.665 | 0.383 | 0.427 | 0.574 | 0.459 | 0.526 | 0.35 | 1.02 | 1.12 | 0.774 | 0.973 | 0.703 |  |  |  |  |  |
| NCI-H441 | 0.516 | 0.463 | 0.393 | 0.164 | 0.155 | 0.511 | 0.541 | 0.418 | 0.289 | 0.264 | 0.473 | 0.722 | 0.362 | 0.16 | 0.174 |  |  |  |  |  |
| NCI-H522 | 0.593 | 0.724 | 0.811 | 0.59 | 0.539 | 0.589 | 0.554 | 0.539 | 0.59 | 0.516 |  |  |  |  |  |  |  |  |  |  |
| NCI-H1299 | 0.954 | 0.964 | 0.936 | 0.833 | 0.65 |  |  |  |  |  | 1.04 | 1.04 | 1.14 | 1.02 | 0.872 | 0.926 | 0.985 | 0.772 | 0.431 | 0.382 |
| NCI-H1563 |  |  |  |  |  |  |  |  |  |  | 0.855 | 0.918 | 0.868 | 0.588 | 0.557 | 0.698 | 0.76 | 0.705 | 0.611 | 0.52 |
| NCI-H1623 |  |  |  |  |  | 0.416 | 0.392 | 0.349 | 0.396 | 0.259 |  |  |  |  |  |  |  |  |  |  |
| NCI-H1648 |  | 0.885 | 0.758 | 0.757 | 0.358 |  | 0.359 | 0.416 | 0.282 | 0.28 |  |  |  |  |  |  |  |  |  |  |
| NCI-H1650 | 0.797 | 0.652 | 0.723 | 0.341 | 0.198 | 0.381 | 0.356 | 0.337 | 0.197 | 0.208 |  |  |  |  |  | 0.535 | 0.321 | 0.235 | 0.147 | 0.16 |
| NCI-H1703 | 0.366 | 0.465 | 0.424 | 0.246 | 0.179 |  |  |  |  |  | 0.406 | 0.367 | 0.31 | 0.287 | 0.255 | 1.01 | 1 | 0.807 | 0.287 | 0.281 |
| NCI-H1792 | 0.348 | 0.248 |  | 0.212 | 0.152 |  |  |  |  |  | 0.61 | 0.415 | 0.374 | 0.549 | 0.302 | 0.848 | 0.798 | 0.841 | 0.326 | 0.139 |
| NCI-H2342 | 0.474 | 0.398 | 0.267 | 0.208 | 0.211 | 0.528 | 0.512 | 0.379 | 0.315 | 0.272 |  |  |  |  |  |  |  |  |  |  |
| SW 900 | 0.913 | 0.924 | 0.968 | 0.359 | 0.224 | 0.459 | 0.666 | 0.55 | 0.341 | 0.224 |  |  |  |  |  |  |  |  |  |  |
